# Measured values published in patent publication US20240415914A1, “Water Dispersible Cannabinoid Compositions” (priority 2021, published 2024).
# Experiment: Stability of cannabinoid and Vitamin E components of Beverage 1 (AB White) stored at 8° C. and 21-25° C., LCMSMS over 570 days
# Type: physicochemical
# Settings: for Stability in AB White, 8° C. (content by LCMSMS): beverage stored at 8° C.; for Stability in AB White, 21-25° C. (content by LCMSMS): beverage stored at 21-25° C.
# Experimental: The LCMSMS was calibrated for 0-1000 ng/ml cannabinoids with the same resin material used in the preparation of the concentrates. At each time period, 100 ml of beverage was diluted with 10 ml of methanol and injected into the LCMSMS for analysis.
structure (smiles),measurement,setting,value
"C=C(C)[C@@H]1CCC(C)=C[C@H]1c1c(O)cc(CCCCC)c(C(=O)O)c1O [CBDA, cannabidiolic acid]","Stability in AB White, 8° C. (content by LCMSMS)",day 0,1.75 µg/mL
same,"Stability in AB White, 8° C. (content by LCMSMS)",day 1,1.72 µg/mL
same,"Stability in AB White, 8° C. (content by LCMSMS)",day 2,1.76 µg/mL
same,"Stability in AB White, 8° C. (content by LCMSMS)",day 3,1.76 µg/mL
same,"Stability in AB White, 8° C. (content by LCMSMS)",day 5,1.71 µg/mL
same,"Stability in AB White, 8° C. (content by LCMSMS)",day 8,1.75 µg/mL
same,"Stability in AB White, 8° C. (content by LCMSMS)",day 9,1.73 µg/mL
same,"Stability in AB White, 8° C. (content by LCMSMS)",day 10,1.76 µg/mL
same,"Stability in AB White, 8° C. (content by LCMSMS)",day 11,1.70 µg/mL
same,"Stability in AB White, 8° C. (content by LCMSMS)",day 12,1.71 µg/mL
same,"Stability in AB White, 8° C. (content by LCMSMS)",day 15,1.74 µg/mL
same,"Stability in AB White, 8° C. (content by LCMSMS)",day 16,1.73 µg/mL
same,"Stability in AB White, 8° C. (content by LCMSMS)",day 17,1.73 µg/mL
same,"Stability in AB White, 8° C. (content by LCMSMS)",day 18,1.76 µg/mL
same,"Stability in AB White, 8° C. (content by LCMSMS)",day 19,1.74 µg/mL
same,"Stability in AB White, 8° C. (content by LCMSMS)",day 22,1.70 µg/mL
same,"Stability in AB White, 8° C. (content by LCMSMS)",day 23,1.76 µg/mL
same,"Stability in AB White, 8° C. (content by LCMSMS)",day 24,1.72 µg/mL
same,"Stability in AB White, 8° C. (content by LCMSMS)",day 25,1.75 µg/mL
same,"Stability in AB White, 8° C. (content by LCMSMS)",day 26,1.75 µg/mL
same,"Stability in AB White, 8° C. (content by LCMSMS)",day 29,1.75 µg/mL
same,"Stability in AB White, 8° C. (content by LCMSMS)",day 30,1.76 µg/mL
same,"Stability in AB White, 8° C. (content by LCMSMS)",day 60,1.70 µg/mL
same,"Stability in AB White, 8° C. (content by LCMSMS)",day 90,1.70 µg/mL
same,"Stability in AB White, 8° C. (content by LCMSMS)",day 120,1.67 µg/mL
same,"Stability in AB White, 8° C. (content by LCMSMS)",day 150,1.71 µg/mL
same,"Stability in AB White, 8° C. (content by LCMSMS)",day 180,1.75 µg/mL
same,"Stability in AB White, 8° C. (content by LCMSMS)",day 210,1.68 µg/mL
same,"Stability in AB White, 8° C. (content by LCMSMS)",day 240,1.70 µg/mL
same,"Stability in AB White, 8° C. (content by LCMSMS)",day 270,1.70 µg/mL
same,"Stability in AB White, 8° C. (content by LCMSMS)",day 300,1.69 µg/mL
same,"Stability in AB White, 8° C. (content by LCMSMS)",day 330,1.70 µg/mL
same,"Stability in AB White, 8° C. (content by LCMSMS)",day 360,1.70 µg/mL
same,"Stability in AB White, 8° C. (content by LCMSMS)",day 390,1.70 µg/mL
same,"Stability in AB White, 8° C. (content by LCMSMS)",day 420,1.67 µg/mL
same,"Stability in AB White, 8° C. (content by LCMSMS)",day 450,1.68 µg/mL
same,"Stability in AB White, 8° C. (content by LCMSMS)",day 480,1.66 µg/mL
same,"Stability in AB White, 8° C. (content by LCMSMS)",day 510,1.61 µg/mL
same,"Stability in AB White, 8° C. (content by LCMSMS)",day 540,1.61 µg/mL
same,"Stability in AB White, 8° C. (content by LCMSMS)",day 570,1.60 µg/mL
same,"Stability in AB White, 21-25° C. (content by LCMSMS)",day 0,1.75 µg/mL
same,"Stability in AB White, 21-25° C. (content by LCMSMS)",day 1,1.76 µg/mL
same,"Stability in AB White, 21-25° C. (content by LCMSMS)",day 2,1.70 µg/mL
same,"Stability in AB White, 21-25° C. (content by LCMSMS)",day 3,1.71 µg/mL
same,"Stability in AB White, 21-25° C. (content by LCMSMS)",day 5,1.69 µg/mL
same,"Stability in AB White, 21-25° C. (content by LCMSMS)",day 8,1.77 µg/mL
same,"Stability in AB White, 21-25° C. (content by LCMSMS)",day 9,1.74 µg/mL
same,"Stability in AB White, 21-25° C. (content by LCMSMS)",day 10,1.73 µg/mL
same,"Stability in AB White, 21-25° C. (content by LCMSMS)",day 11,1.76 µg/mL
same,"Stability in AB White, 21-25° C. (content by LCMSMS)",day 12,1.74 µg/mL
same,"Stability in AB White, 21-25° C. (content by LCMSMS)",day 15,1.69 µg/mL
same,"Stability in AB White, 21-25° C. (content by LCMSMS)",day 16,1.75 µg/mL
same,"Stability in AB White, 21-25° C. (content by LCMSMS)",day 17,1.72 µg/mL
same,"Stability in AB White, 21-25° C. (content by LCMSMS)",day 18,1.75 µg/mL
same,"Stability in AB White, 21-25° C. (content by LCMSMS)",day 19,1.70 µg/mL
same,"Stability in AB White, 21-25° C. (content by LCMSMS)",day 22,1.70 µg/mL
same,"Stability in AB White, 21-25° C. (content by LCMSMS)",day 23,1.73 µg/mL
same,"Stability in AB White, 21-25° C. (content by LCMSMS)",day 24,1.70 µg/mL
same,"Stability in AB White, 21-25° C. (content by LCMSMS)",day 25,1.73 µg/mL
same,"Stability in AB White, 21-25° C. (content by LCMSMS)",day 26,1.75 µg/mL
same,"Stability in AB White, 21-25° C. (content by LCMSMS)",day 29,1.76 µg/mL
same,"Stability in AB White, 21-25° C. (content by LCMSMS)",day 30,1.71 µg/mL
same,"Stability in AB White, 21-25° C. (content by LCMSMS)",day 60,1.68 µg/mL
same,"Stability in AB White, 21-25° C. (content by LCMSMS)",day 90,1.67 µg/mL
same,"Stability in AB White, 21-25° C. (content by LCMSMS)",day 120,1.66 µg/mL
same,"Stability in AB White, 21-25° C. (content by LCMSMS)",day 150,1.64 µg/mL
same,"Stability in AB White, 21-25° C. (content by LCMSMS)",day 180,1.69 µg/mL
same,"Stability in AB White, 21-25° C. (content by LCMSMS)",day 210,1.73 µg/mL
same,"Stability in AB White, 21-25° C. (content by LCMSMS)",day 240,1.73 µg/mL
same,"Stability in AB White, 21-25° C. (content by LCMSMS)",day 270,1.71 µg/mL
same,"Stability in AB White, 21-25° C. (content by LCMSMS)",day 300,1.73 µg/mL
same,"Stability in AB White, 21-25° C. (content by LCMSMS)",day 330,1.72 µg/mL
same,"Stability in AB White, 21-25° C. (content by LCMSMS)",day 360,1.69 µg/mL
same,"Stability in AB White, 21-25° C. (content by LCMSMS)",day 390,1.67 µg/mL
same,"Stability in AB White, 21-25° C. (content by LCMSMS)",day 420,1.64 µg/mL
same,"Stability in AB White, 21-25° C. (content by LCMSMS)",day 450,1.70 µg/mL
same,"Stability in AB White, 21-25° C. (content by LCMSMS)",day 480,1.63 µg/mL
same,"Stability in AB White, 21-25° C. (content by LCMSMS)",day 510,1.66 µg/mL
same,"Stability in AB White, 21-25° C. (content by LCMSMS)",day 540,1.63 µg/mL
same,"Stability in AB White, 21-25° C. (content by LCMSMS)",day 570,1.61 µg/mL
